# Assay results: PMC4666608, “Metabolic Profiling of Chicken Embryos Exposed to Perfluorooctanoic Acid (PFOA) and Agonists to Peroxisome Proliferator-Activated Receptors” (PLoS ONE, 2015)
# Marks after values point to notes of the source that are not given here.
# Tested on: chicken embryos
# Assay: Metabolic profiling of blood plasma (GC-MS, LC-MS, OPLS-DA)
# Assay type: in vivo, Gallus gallus domesticus
# Method: Controls were injected with 20 μL vehicle only (DMSO).
# Plasma was collected and stored at -70°C.
# Metabolites in allantoic fluid and blood plasma were analyzed using gas chromatography-mass spectrometry (GC-MS) and liquid chromatography-mass spectrometry (LC-MS) as described in S1 Methods. Prior to GC-MS and LC-MS analysis, allantoic fluid (100 μL) and blood plasma (50 μL) were extracted. To each sample, 900 μL (allantoic fluid) or 450 μL (blood plasma) of extraction buffer (90/10 v/v methanol:water) including all internal standards were added. Standards for GC-MS were proline, succinic acid, glutamic acid, salicylic acid, alpha-ketoglutarate, putrescine, myristic acid, hexadecanoic acid, cholesterol, and sucrose. Standards for LC-MS were Val-Tyr-Val, Leu-enkephalin, sulfadimethoxine and reserpine. Samples were homogenized by shaking in a bead mill at a frequency of 30 Hz for 3 minutes and proteins were precipitated at +4°C on ice. The samples were centrifuged at +4°C, 14000 rpm, for 10 min. Then, 200 μL supernatant was transferred to a GC microvial and 200 μL was transferred to an LC microvial, and solvents were evaporated. Samples from the four replicate experiments were analyzed using in chronological order and within each replicate experiment the run order of the individual samples was randomized.
# Multivariate statistical analyses of metabolite profiles were performed using the software package SIMCA-P version 13.0 (Umetrics, Umeå, Sweden). Data was centered and scaled to variance 1 (UV scaling) prior to modelling. To reduce unintended systematic variation caused by sample processing and instrument drift, GC-MS and LC-MS metabolite amounts (expressed as the area under the chromatographic peak) were normalized by Orthogonal Partial Least Squares analysis (O2PLS) prior to multivariate data analysis. O2PLS finds common (predictive) and unique (orthogonal) variation in two data matrices. If applied to find the common variation between the data matrix containing the measured metabolite concentrations and a matrix containing only the internal standards, the only common (predictive) variation expected is due to the unintended systematic variation. By deleting the contribution of the predictive latent variables, that variation can be removed from the data. Models obtained after this normalization contain in general less latent variables, and this simplification helps when deciding on the number of latent variables to be used. Following normalization, GC-MS and LC-MS data were analyzed together. Initially, a global Principal Component Analysis (PCA) was performed to get an overview of groups and trends and to identify outliers. Projections to latent structures by means of Orthogonal Partial Least Squares Discriminant Analysis (OPLS-DA) was used to model the relationship between the X-matrix (metabolite concentrations) and the Y matrix (class, i.e. exposure group or sex), and to find x-variables that were related to class belonging. OPLS-DA is a supervised prediction and regression method that rotates the projection plane to find the maximum covariance between the data and the class assignment. All groups were first analyzed together in a 5-class OPLS-DA and then each exposure group was analyzed against the control group in a 2-class OPLS-DA. Sex differences were analyzed both using the whole data set and in each group separately using 2-class OPLS-DA, with females and males as the two classes. Only variables with 80% or more nonzero values were included in the statistical models. […] The validity of each model was also checked using CV-ANOVA (ANOVA of the cross-validated residuals). A significance level of p < 0.05 was used. For each model, R ^2 X, R ^2 Y and Q ^2 values were calculated, where R ^2 X is a measure of the fraction of x variation modeled in the extracted latent variables, R ^2 Y is a measure of the fraction of y variation modeled and Q ^2 is an estimate of the predictive ability of the model and is calculated by cross-validation. […]
smiles,measurement,setting,value
"CC(C)(Sc1ccc(CCN(CCCCC2CCCCC2)C(=O)NC2CCCCC2)cc1)C(=O)O [GW7647, reference compound]","Mean concentration relative to control, feature Win006_C03",GC,1.3***
same,"Mean concentration relative to control, feature Win011_C02 (Isoleucine)",GC,1.2**
same,"Mean concentration relative to control, feature Win027_C13",GC,0.9
same,"Mean concentration relative to control, feature Win031_C03 (Citric acid)",GC,0.8**
same,"Mean concentration relative to control, feature Win034_C08 (Tyrosine)",GC,1.2***
same,"Mean concentration relative to control, feature Win034_C09 (Tyrosine)",GC,1.3***
same,"Mean concentration relative to control, feature Win039_C07",GC,1.8***
same,"Mean concentration relative to control, feature Win043_C02 (Cystathionine)",GC,1.6***
same,"Mean concentration relative to control, feature Win061_C01",GC,1.4*
same,"Mean concentration relative to control, feature Win066_C03",GC,1.3**
same,"Mean concentration relative to control, feature Win088_C02",GC,1.2**
same,"Mean concentration relative to control, feature 118.0284@2.480333 (C4H6O4)",LC,0.9
same,"Mean concentration relative to control, feature 122.0486@0.675613",LC,0.7**
same,"Mean concentration relative to control, feature 126.0428@1.2278157 (Thymine)",LC,1.2***
same,"Mean concentration relative to control, feature 146.0362@0.7772238",LC,1.3**
same,"Mean concentration relative to control, feature 159.0686@1.1608156",LC,1.6**
same,"Mean concentration relative to control, feature 164.0449@0.7694838",LC,1.2**
same,"Mean concentration relative to control, feature 202.1024@5.0303197 (C8H14N2O4)",LC,1.4**
same,"Mean concentration relative to control, feature 203.1162@0.5130696",LC,0.8***
same,"Mean concentration relative to control, feature 213.2458@7.4887733",LC,1
same,"Mean concentration relative to control, feature 215.047@1.6260729 (C5H14NO6P)",LC,0.8***
same,"Mean concentration relative to control, feature 226.0721@1.9460537",LC,1.1**
same,"Mean concentration relative to control, feature 231.0174@1.6241412",LC,0.7**
same,"Mean concentration relative to control, feature 233.1265@2.535991",LC,1.4**
same,"Mean concentration relative to control, feature 250.1317@2.1334834",LC,1.7**
same,"Mean concentration relative to control, feature 260.0508@0.69984084",LC,0.8
same,"Mean concentration relative to control, feature 276.0173@1.6283482",LC,0.7**
same,"Mean concentration relative to control, feature 278.0939@1.3354088",LC,0.8***
same,"Mean concentration relative to control, feature 293.0903@1.5739433",LC,1.2***
same,"Mean concentration relative to control, feature 307.2147@7.5065937 (C18H29NO3)",LC,0.9
same,"Mean concentration relative to control, feature 310.178@7.5343466",LC,1
same,"Mean concentration relative to control, feature 339.3861@9.528681",LC,1.1
same,"Mean concentration relative to control, feature 342.2883@7.526812",LC,1.1
same,"Mean concentration relative to control, feature 348.0675@1.5761927",LC,1.1**
same,"Mean concentration relative to control, feature 355.9454@0.68034226",LC,0.9**
same,"Mean concentration relative to control, feature 362.1467@0.8461036",LC,1.2***
same,"Mean concentration relative to control, feature 366.1431@1.4228548",LC,1.1
same,"Mean concentration relative to control, feature 373.296@9.044806",LC,0.8***
same,"Mean concentration relative to control, feature 375.3108@8.995564",LC,0.8**
same,"Mean concentration relative to control, feature 389.2686@9.046645",LC,0.9**
same,"Mean concentration relative to control, feature 407.0999@1.585909",LC,1
same,"Mean concentration relative to control, feature 412.135@2.4779084 (C17H24N4O6S)",LC,0.9
same,"Mean concentration relative to control, feature 444.3607@10.33052",LC,0.9
same,"Mean concentration relative to control, feature 471.9819@0.685074",LC,0.8*
same,"Mean concentration relative to control, feature 489.1508@8.562614",LC,0.7**
same,"Mean concentration relative to control, feature 509.1184@2.4798179",LC,1
same,"Mean concentration relative to control, feature 525.2855@8.361063",LC,1.4**
same,"Mean concentration relative to control, feature 545.2492@8.463657",LC,1.2*
same,"Mean concentration relative to control, feature 558.4095@9.459733",LC,1.3
same,"Mean concentration relative to control, feature 565.1902@0.7699907",LC,1.2***
same,"Mean concentration relative to control, feature 577.2747@9.25652",LC,1.2**
same,"Mean concentration relative to control, feature 581.1643@0.77029324",LC,1.3***
same,"Mean concentration relative to control, feature 634.2403@1.9467853",LC,1.5*
same,"Mean concentration relative to control, feature 644.1614@0.7647065",LC,1.2**
same,"Mean concentration relative to control, feature 659.5483@11.4915495",LC,0.7***
same,"Mean concentration relative to control, feature 698.2598@1.3599721",LC,1.1
same,"Mean concentration relative to control, feature 700.5514@10.765638",LC,1.4*
same,"Mean concentration relative to control, feature 755.5465@10.73882",LC,0.9
same,"Mean concentration relative to control, feature 827.5078@8.831237",LC,1.5*
same,"Mean concentration relative to control, feature 875.4661@10.5661745",LC,1.3***
same,"Mean concentration relative to control, feature 1262.4865@1.947075",LC,1.1**
same,"Mean concentration relative to control, feature 1316.4163@1.9465046",LC,1.1**
same,"Mean concentration relative to control, feature 1591.051@5.0189176",LC,0.8**
same,"Mean concentration relative to control, feature 1591.388@5.0202384",LC,0.8***
same,"Mean concentration relative to control, feature 1591.7203@5.018071",LC,0.8**
